According to patent US8410089B2, “Fused heterocyclic ring compound” (Takeda Pharmaceutical Company Limited, priority 2009, dated 2013):

target: T1, human GPR119 (Homo sapiens, UniProt Q8TDV5); assay: Human GPR119 agonist activity with increase of intracellular cAMP concentration as index (CRE-luciferase reporter assay in hGPR119/CRE-luc/CHO(dhfr-) cells); assay type: cell-based; details: 1 μM test compound, 2 hr incubation; luciferase activity with 10 μM N-[4-(methylsulfonyl)phenyl]-5-nitro-6-{4-[4-(trifluoromethoxy)phenoxy]piperidin-1-yl}pyrimidin-4-amine = 100%, DMSO = 0%
T1 construct: expressed in transfected cells
T1 sequence (Q8TDV5 1-335): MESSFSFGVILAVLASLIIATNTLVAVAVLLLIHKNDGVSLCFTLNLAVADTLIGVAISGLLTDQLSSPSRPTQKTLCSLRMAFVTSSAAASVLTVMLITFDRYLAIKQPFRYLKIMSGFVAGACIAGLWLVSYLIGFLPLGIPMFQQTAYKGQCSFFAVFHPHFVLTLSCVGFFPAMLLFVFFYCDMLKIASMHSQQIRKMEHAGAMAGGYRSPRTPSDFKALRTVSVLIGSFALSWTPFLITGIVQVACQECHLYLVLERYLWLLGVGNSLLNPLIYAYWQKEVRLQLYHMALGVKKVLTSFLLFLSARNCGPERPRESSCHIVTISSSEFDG
Experimental: Evaluation of Human GPR119 Agonist Activity with Increase of Intracellular Camp Concentration as Index
(1) Construction of Expression Plasmid of Human GPR119 Gene
Using High Fidelity RNA PCR Kit (Takara Bio Inc.), human GPR119 gene was cloned by PCR using cDNA library synthesized from human brain mRNA (Clontech) as a template and synthetic DNA having the following sequence. Primer 1 and Primer 2 were is prepared by adding cleavage sites for Sal I and Nhe I based on the base sequence information of human GPR119 gene.
PCR was performed using Pyrobest DNA polymerase (Takara Bio Inc.). The obtained PCR product was cloned to pUC118 (Takara Bio Inc.), and the base sequence was […] and digested with restriction enzymes Sal I, Nhe I. The obtained DNA fragment was inserted into an animal cell expression vector pAKKO-111H (plasmid same as pAKKO-1.111H described in Biochem. Biophys. Acta, Hinuma, S. et al., 1219, 251-259 (1994)) similarly digested with Sal I, Nhe I, whereby an expression plasmid pAKKO-111H/hGPR119 was prepared.
(2) Construction of Reporter Plasmid
Zeocin resistance gene was cloned by PCR using plasmid pcDNA3.1/Zeo (Invitrogen) as a template, synthetic DNA having the following sequences wherein cleavage sites for restriction enzymes Sal I and BamH I are added to before and after a region containing SV40 Ori and a region containing SV40pA, which are located at the upstream and downstream of Zeocin resistance gene of this plasmid, as a primer set, and KOD polymerase (TOYOBO).
The obtained PCR product was inserted into pCR-BluntII (Invitrogen). A fragment containing a Zeocine resistance gene obtained by digesting the plasmid with restriction enzymes Sal I and BamH I was inserted into plasmid pGL3(R2.2)-Basic Vector (promega) similarly digested with Sal I and Bam HI to give Zeocin resistance plasmid pGL3(R2.2)/Zeocin-Basic Vector.
A reporter plasmid containing 4 cAMP responsive elements (CRE) connected in tandem was prepared using the following 5′-terminal phosphorylated synthetic DNA.
First, a DNA fragment containing a CRE sequence obtained by annealing CRE-Upper and CRE-Lower and elongating with KOD polymerase was inserted into pCR-BluntII to give pCR-BluntII-CRE. A fragment cleaved from pCR-BluntII-CRE with restriction enzymes Kpn I and Hind III was inserted into pGL3(R2.2)/Zeocin-Basic Vector similarly digested with Kpn I and Hind III to give reporter plasmid pGL3(R2.2)/Zeocin-CRE-luc.
(3) Introduction of Human GPR119 Gene and Reporter Gene into CHO(dhfr-) Cells and Acquirement of Expressing Cell
CHO(dhfr-) cells in MEMα (minimum essential medium alpha) (Nikken bio medical laboratory) medium containing 10% fetal bovine serum, 100 U/mL penicillin and 100 μg/mL streptomycin (Invitrogen) were detached by a treatment with trypsin-EDTA (ethylenediaminetetraacetic acid) (Invitrogen), the cells were washed with PBS (Phosphate-buffered saline), centrifuged (1000 rpm, 5 min) and suspended in PBS at a cell density of 1×10^7 cells/mL. Then, DNA was introduced into the cell by a gene pulser (Bio-Rad) under the following conditions. That is, 1×10^7 cells, plasmid pGL3(R2.2)/Zeocin-CRE-luc (15 μg), which was obtained in (2) and linearized with BssH II, and pAKKO-111H (5 μg) were added in a 0.4 cm gap cuvette, and the mixture was electroporated at voltage […], capacitance 950 μF. The cells were placed in the above-mentioned medium, cultured for 24 hr, and the cells were detached and centrifuged. The cells were diluted to 250 cells/well, plated in a 96 well plate (Corning) and cultivated in a CO2 incubator at 37° C. to give a transformant. Then, forskolin was added to the obtained transformant and a strain (CRE-luc/CHO(dhfr-) cell) that induces luciferase expression was selected. […]

Structure (SMILES) | GPR119 agonist activity (%) at 1 μM concentration [%]
CCc1cnc(N2CCC(Oc3cc(N4CCc5cc(S(C)(=O)=O)ccc54)ncn3)CC2)nc1 [Example 33, 1-(6-{[1-(5-ethylpyrimidin-2-yl)piperidin-4-yl]oxy}pyrimidin-4-yl)-5-(methylsulfonyl)-2,3-dihydro-1H-indole] | 74
CCc1cnc(N2CCC(Oc3cc(N4CCc5cc(C(=O)N(C)CCO)ccc54)ncn3)CC2)nc1 [Example 21, 1-(6-{[1-(5-ethylpyrimidin-2-yl)piperidin-4-yl]oxy}pyrimidin-4-yl)-N-(2-hydroxyethyl)-N-methyl-2,3-dihydro-1H-indole-5-carboxamide] | 80
CCc1cnc(N2CCC(Oc3cc(N4CCc5cc(C(=O)N6CCOCC6)ccc54)ncn3)CC2)nc1 [Example 27, [1-(6-{[1-(5-ethylpyrimidin-2-yl)piperidin-4-yl]oxy}pyrimidin-4-yl)-2,3-dihydro-1H-indol-5-yl](morpholin-4-yl)methanone] | 77
CC(C)c1noc(N2CCC(Oc3cc(N4CCc5cc(S(C)(=O)=O)cc(F)c54)ncn3)CC2)n1 [Example 64, 7-fluoro-1-[6-({1-[3-(1-methylethyl)-1,2,4-oxadiazol-5-yl]piperidin-4-yl}oxy)pyrimidin-4-yl]-5-(methylsulfonyl)-2,3-dihydro-1H-indole] | 77
COCCN(C)C(=O)c1ccc2c(c1)CCN2c1cc(OC2CCN(c3nc(C(C)C)no3)CC2)ncn1 [Example 31, N-(2-methoxyethyl)-N-methyl-1-[6-({1-[3-(1-methylethyl)-1,2,4-oxadiazol-5-yl]piperidin-4-yl}oxy)pyrimidin-4-yl]-2,3-dihydro-1H-indole-5-carboxamide] | 80
CCc1cnc(N2CCC(N(c3cc(N4CCc5cc(S(C)(=O)=O)ccc54)ncn3)C(F)(F)F)CC2)nc1 [Example 69, N-[1-(5-ethylpyrimidin-2-yl)piperidin-4-yl]-6-[5-(methylsulfonyl)-2,3-dihydro-1H-indol-1-yl]-N-(trifluoromethyl)pyrimidin-4-amine] | 98
CC(C)(C)OC(=O)N1CCC(n2ccc3c(N4CCc5cc(S(C)(=O)=O)ccc54)ccnc32)CC1 [Example 3, tert-butyl 4-{4-[5-(methylsulfonyl)-2,3-dihydro-1H-indol-1-yl]-1H-pyrrolo[2,3-b]pyridin-1-yl}piperidine-1-carboxylate] | 87
CN(CCO)C(=O)c1ccc2c(c1)CCN2c1cc(OC2CCN(C(=O)OC(C)(C)C)CC2)ncn1 [Example 20, tert-butyl 4-[(6-{5-[(2-hydroxyethyl)(methyl)carbamoyl]-2,3-dihydro-1H-indol-1-yl}pyrimidin-4-yl)oxy]piperidine-1-carboxylate] | 88
CCc1cnc(N2CCC(Oc3cc(N4CCc5cc(NC(=O)CO)ccc54)ncn3)CC2)nc1 [Example 56, N-[1-(6-{[1-(5-ethylpyrimidin-2-yl)piperidin-4-yl]oxy}pyrimidin-4-yl)-2,3-dihydro-1H-indol-5-yl]-2-hydroxyacetamide] | 75
CC(C)(C)OC(=O)N1CCC(n2ccc3c(N4CCc5cc(S(C)(=O)=O)ccc54)ncnc32)CC1 [Example 1, tert-butyl 4-{4-[5-(methylsulfonyl)-2,3-dihydro-1H-indol-1-yl]-7H-pyrrolo[2,3-d]pyrimidin-7-yl}piperidine-1-carboxylate] | 62
CC(C)c1noc(N2CCC(Oc3cc(N4CCc5cc(N6CCCC6=O)ccc54)ncn3)CC2)n1 [Example 46, 1-{1-[6-({1-[3-(1-methylethyl)-1,2,4-oxadiazol-5-yl]piperidin-4-yl}oxy)pyrimidin-4-yl]-2,3-dihydro-1H-indol-5-yl}pyrrolidin-2-one] | 80
CC(C)(C)OC(=O)N1CCC(Cn2ccc3c(N4CCc5cc(S(C)(=O)=O)ccc54)ncnc32)C1 (stereo in doubt) [Example 12, tert-butyl (3S)-3-({4-[5-(methylsulfonyl)-2,3-dihydro-1H-indol-1-yl]-7H-pyrrolo[2,3-d]pyrimidin-7-yl}methyl)pyrrolidine-1-carboxylate] | 84
CC(C)OC(=O)N1CCC(n2ccc3c(N4CCc5cc([N+](=O)[O-])ccc54)ncnc32)CC1 [Example 7, 1-methylethyl 4-[4-(5-nitro-2,3-dihydro-1H-indol-1-yl)-7H-pyrrolo[2,3-d]pyrimidin-7-yl]piperidine-1-carboxylate] | 96
CCc1cnc(N2CCC(Oc3cc(N4CCc5cc(C(=O)NC(C)CO)ccc54)ncn3)CC2)nc1 (stereo not drawn) [Example 23, 1-(6-{[1-(5-ethylpyrimidin-2-yl)piperidin-4-yl]oxy}pyrimidin-4-yl)-N-(1-hydroxypropan-2-yl)-2,3-dihydro-1H-indole-5-carboxamide] | 79
CC(C)OC(=O)N1CCC(n2ccc3c(N4CCc5cc(N6CCCC6=O)ccc54)ncnc32)CC1 [Example 10, 1-methylethyl 4-{4-[5-(2-oxopyrrolidin-1-yl)-2,3-dihydro-1H-indol-1-yl]-7H-pyrrolo[2,3-d]pyrimidin-7-yl}piperidine-1-carboxylate] | 93
CC(C)c1noc(N2CCC(N(c3cc(N4CCc5cc(S(C)(=O)=O)ccc54)ncn3)C(F)(F)F)CC2)n1 [Example 32, N-{1-[3-(1-methylethyl)-1,2,4-oxadiazol-5-yl]piperidin-4-yl}-6-[5-(methylsulfonyl)-2,3-dihydro-1H-indol-1-yl]-N-(trifluoromethyl)pyrimidin-4-amine] | 92

tested on: male Wistar fatty rats; assay: Oral glucose tolerance test (OGTT), hypoglycemic action; assay type: in vivo, rat; details: 10 mg/kg oral, OGTT in WF rats; decrease rate of AUC0-120min with control group as 100%; **p ≦ 0.01 vs control
Experimental: A hypoglycemic action of the compound of the present invention was examined in an oral glucose tolerance test (OGTT) using male Wistar fatty rats (WF rat, TAKEDA RABICS).
First, 22-week-old WF rats fasted overnight were divided into groups (6 per group), and blood samples were collected and used as plasma samples before drug administration (−60 min). Thereafter, 0.5% methylcellulose (control group) and a test compound was orally administered at 10 mg/kg. At 60 min after compound administration, each individual was loaded by oral administration of glucose at 1 g/kg, and the blood was drawn before glucose loading (0 min) and 10, 30, 60 and 120 min after loading. The plasma glucose concentration was measured using L type Waco Glu2 (Wako) and Hitachi automatic analyzer 7080 (Hitachi Instruments Service Co., Ltd.). The 0-120 min area under time curve (AUC0-120min) and the decrease rate when the control group was 100% were calculated from the plasma glucose values measured.

Structure (SMILES) | blood glucose lowering rate (%)
CCc1cnc(N2CCC(Oc3cc(N4CCc5cc(S(C)(=O)=O)ccc54)ncn3)CC2)nc1 [Example 33, 1-(6-{[1-(5-ethylpyrimidin-2-yl)piperidin-4-yl]oxy}pyrimidin-4-yl)-5-(methylsulfonyl)-2,3-dihydro-1H-indole] | 23.4** %

same assay, conditions: 22-week-old WF rats fasted overnight, 10 mg/kg oral, glucose 1 g/kg oral 60 min after compound; control group 32734.2

Structure (SMILES) | plasma glucose AUC0-120 min [mg·min/dL]
CCc1cnc(N2CCC(Oc3cc(N4CCc5cc(S(C)(=O)=O)ccc54)ncn3)CC2)nc1 [Example 33, 1-(6-{[1-(5-ethylpyrimidin-2-yl)piperidin-4-yl]oxy}pyrimidin-4-yl)-5-(methylsulfonyl)-2,3-dihydro-1H-indole] | 25073.3
